# Laboratory results reported in US9598433B2, “Hepatitis C virus inhibitors” (BRISTOL-MYERS SQUIBB COMPANY, priority 2012, dated 2017).
# Like-named read-outs stand apart in the source and are kept apart here.
# Columns and labels:
# [1] = system: HCV genotype 1a (H77 strain) replicon in HUH-7 cells; experiment: HCV replicon luciferase reporter assay, genotype 1a; assay type: cell-based; conditions: Hepatitis C virus, 72 h, genotype 1a replicon, 3 days incubation
# From the text: (§1) An HCV replicon whole cell system was established as described by Lohmann V, Korner F, Koch J, Herian U, Theilmann L, Bartenschlager R., Science 285(5424):110-3 (1999) and modified to introduce a luciferase reporter, as first described by Krieger et al (Krieger N, Lohmann V, and Bartenschlager R, J. Virol. 75(10):4614-4624 (2001)). CDNA encoding a humanized form of the Renilla luciferase gene and a linker sequence fused directly to the 3′-end of the luciferase gene were introduced into the replicon construct using an Ascl restriction site located in core, directly upstream of the neomycin marker gene. The adaptive mutation at position 1179 (serine to isoleucine) was also introduced (Blight K J, Kolykhalov, A A, Rice, C M, Science 290(5498):1972-1974). A stable cell line constitutively expressing this HCV replicon construct was generated by first linearizing plasmid DNAs with ScaI. RNA transcripts were synthesized in vitro using the T7 MegaScript transcription kit (Ambion, Austin, Tex.) according to manufacturer's directions. In vitro transcripts of the cDNA were transfected into the human hepatoma cell line, HUH-7. […] Resulting cell lines were characterized for positive and negative strand RNA production and protein production over time.
# A stable HCV replicon luciferase reporter cell line representing the genotype 1a H77 strain (Yanagi M, Purcell R H, Emerson S U, et al. Transcripts from a single full-length cDNA clone of hepatitis C virus are infectious when directly transfected into the liver of a chimpanzee. Proc Natl Acad Sci USA 1997; 94(16):8738-8743) was generated as described previously for the genotype 1b(Con1) replicon luciferase cell line. The replicon construct was modified by introducing mutations were introduced into the genes encoding the NS3 helicase domain (proline replaced by leucine at position 1496) and NS5A (serine to isoleucine at position 2204) to improve replication in cell culture.
# (§2) HCV replicon luciferase assays were developed to monitor the inhibitory effects of compounds described in the disclosure on HCV genotypes 1a and 1b viral replication. HUH-7 cells, constitutively expressing the HCV replicon, were grown in Dulbecco's Modified Eagle Media (DMEM) (Gibco-BRL) containing 10% Fetal calf serum (FCS) (Sigma) and 1 mg/mL G418 (Gibco-BRL). Compounds were serially diluted 3 folds in DMSO for a twenty-point titration and subsequently transferred to sterile 384-well tissue-culture treated plates (Corning cat #3571). The plates were then seeded with 50 μL of cells at a density of 3.0×10^3 cells/well in DMEM containing 4% FCS (final DMSO concentration at 0.5%). After 3 days incubation at 37° C., cells were analyzed for Renilla Luciferase activity using the EnduRen as substrate (Promega cat #E6485). The EnduRen substrate was diluted in DMEM and then added to the plates to a final concentration of 7.5 μM. The plates were incubated for 2 hrs at 37° C. and then read immediately for 30 seconds with Viewlux Imager (PerkinElmer) using a luminescence program. To assess cytotoxicity of compounds, CC50 values were generated by multiplexing the EnduRen-containing plates with Cell Titer-Blue (Promega, cat # G8082). Cell-Titer Blue (3 μL) was added to each well and incubated for 8 hrs at 37° C. The fluorescence signal from each well was read, with an excitation wavelength at 525/10 nm and an emission wavelength of 598/10 nm, using the Viewlux Imager.
# (§3) The EC50 values for compounds were calculated by using a four-parameter logistic equation: y=A+((B−A)/(1+((C/x)^D))), where A and B denotes minimal and maximal % inhibition, respectively, C is the EC50, D is the hill slope and x represents compound concentration.
# [2] = system: HCV genotype 1b (Con1) replicon in HUH-7 cells; experiment: HCV replicon luciferase reporter assay, genotype 1b; assay type: cell-based; conditions: Hepatitis C virus, 72 h, genotype 1b replicon, 3 days incubation
# From the text: as §1, §2, §3
SMILES,"EC50 ([1]; read-out: LE_1a (EC50, range)) [nM]","EC50 ([2]; read-out: LE_1b (EC50, range)) [nM]",EC50 ([1]; read-out: LE_1a (EC50)) [nM],EC50 ([2]; read-out: LE_1b (EC50)) [nM]
"COc1ccc2c(O[C@@H]3C[C@H]4C(=O)N[C@]5(C(=O)NS(=O)(=O)C6CC6)C[C@H]5/C=C\CO[C@@H](C)C[C@@H](C)[C@H](NC(=O)OC(C)(C)C(F)(F)F)C(=O)N4C3)nccc2c1 [Compound 2604, 1,1,1-trifluoro-2-methylpropan-2-yl ((2R,6S,7R,9S,13aS,14aR,16aS,Z)-14a-((cyclopropylsulfonyl)carbamoyl)-2-((6-methoxyisoquinolin-1-yl)oxy)-7,9-dimethyl-5,16-dioxo-2,3,5,6,7,8,9,11,13a,14,14a,15,16,16a-tetradecahydro-1H-cyclopropa[e]pyrrolo[2,1-i][1,7,10]oxadiazacyclopentadecin-6-yl)carbamate]",5.01 to 35,1.01 to 5,–,–
"COc1ccc2c(O[C@@H]3C[C@H]4C(=O)N[C@]5(C(=O)NS(=O)(=O)C6(CF)CC6)C[C@H]5/C=C\CC[C@@H](C)O[C@@H](C)[C@H](NC(=O)OC(C)(C)C(F)(F)F)C(=O)N4C3)nccc2c1 [Compound 2013, 1,1,1-trifluoro-2-methylpropan-2-yl ((2R,6S,7S,9R,13a5,14aR,16aS,Z)-14a-(((1-(fluoromethyl)cyclopropyl)sulfonyl)carbamoyl)-2-((6-methoxyisoquinolin-1-yl)oxy)-7,9-dimethyl-5,16-dioxo-2,3,5,6,7,9,10,11,13a,14,14a,15,16,16a-tetradecahydro-1H-cyclopropa[i]pyrrolo[1,2-e][1,5,8]oxadiazacyclopentadecin-6-yl)carbamate]",1.01 to 5,0.51 to 1,–,–
"CC[C@@H]1O[C@H](C)CC/C=C\[C@@H]2C[C@@]2(C(=O)NS(=O)(=O)C2(C)CC2)NC(=O)[C@@H]2C[C@@H](Oc3nc4cc(OC)ccc4nc3C(F)(F)F)CN2C(=O)[C@H]1NC(=O)OC(C)(C)C(F)(F)F [Compound 1015, 1,1,1-trifluoro-2-methylpropan-2-yl ((2R,6S,7S,9R,13aS,14aR,16aS,Z)-7-ethyl-2-((7-methoxy-3-(trifluoromethyl)quinoxalin-2-yl)oxy)-9-methyl-14a-(((1-methylcyclopropyl)sulfonyl)carbamoyl)-5,16-dioxo-2,3,5,6,7,9,10,11,13a,14,14a,15,16,16a-tetradecahydro-1H-cyclopropa[i]pyrrolo[1,2-e][1,5,8]oxadiazacyclopentadecin-6-yl)carbamate]",0.1 to 0.5,0.1 to 0.5,–,–
CC[C@@H]1O[C@H](C)CC/C=C\[C@@H]2C[C@@]2(C(=O)NS(=O)(=O)C2(C)CC2)NC(=O)[C@@H]2C[C@@H](Oc3nccc4cc(OC)ccc34)CN2C(=O)[C@H]1NC(=O)OC(C)(C)C(F)(F)F [Compound 1006],1.01 to 5,0.1 to 0.5,–,–
"COc1cnc(O[C@@H]2C[C@H]3C(=O)N[C@]4(C(=O)NS(=O)(=O)C5(C)CC5)C[C@H]4/C=C\CC[C@@H](C)O[C@@H](C)[C@H](NC(=O)OC(C)(C)C(F)(F)F)C(=O)N3C2)c2cc(F)ccc12 [Compound 2007, 1,1,1-trifluoro-2-methylpropan-2-yl ((2R,6S,7S,9R,13aS,14aR,16aS,Z)-2-((7-fluoro-4-methoxyisoquinolin-1-yl)oxy)-7,9-dimethyl-14a-(((1-methylcyclopropyl)sulfonyl)carbamoyl)-5,16-dioxo-2,3,5,6,7,9,10,11,13a,14,14a,15,16,16a-tetradecahydro-1H-cyclopropa[i]pyrrolo[1,2-e][1,5,8]oxadiazacyclopentadecin-6-yl)carbamate]",0.51 to 1,0.1 to 0.5,0.63,0.24
"CCOc1cnc(O[C@@H]2C[C@H]3C(=O)N[C@]4(C(=O)NS(=O)(=O)C5(C)CC5)C[C@H]4/C=C\CC[C@@H](C)O[C@@H](C)[C@H](NC(=O)OC(C)(C)C(F)(F)F)C(=O)N3C2)c2ccccc12 [Compound 2004, 1,1,1-trifluoro-2-methylpropan-2-yl ((2R,6S,7S,9R,13aS,14aR,16aS,Z)-2-((4-ethoxyisoquinolin-1-yl)oxy)-7,9-dimethyl-14a-(((1-methylcyclopropyl)sulfonyl)carbamoyl)-5,16-dioxo-2,3,5,6,7,9,10,11,13a,14,14a,15,16,16a-tetradecahydro-1H-cyclopropa[i]pyrrolo[1,2-e][1,5,8]oxadiazacyclopentadecin-6-yl)carbamate]",0.51 to 1,0.1 to 0.5,–,–
"CC[C@@H]1O[C@H](C)CC/C=C\[C@@H]2C[C@@]2(C(=O)NS(=O)(=O)C2CC2)NC(=O)[C@@H]2C[C@@H](Oc3ncc(OC)c4ccccc34)CN2C(=O)[C@H]1NC(=O)OC(C)(C)C(F)(F)F [Compound 1004, 1,1,1-trifluoro-2-methylpropan-2-yl ((2R,6S,7S,9R,13aS,14aR,16aS,Z)-14a-((cyclopropylsulfonyl)carbamoyl)-7-ethyl-2-((4-methoxyisoquinolin-1-yl)oxy)-9-methyl-5,16-dioxo-2,3,5,6,7,9,10,11,13a,14,14a,15,16,16a-tetradecahydro-1H-cyclopropa[i]pyrrolo[1,2-e][1,5,8]oxadiazacyclopentadecin-6-yl)carbamate]",0.51 to 1,0.1 to 0.5,–,–
"COc1cc(F)cc2c(O[C@@H]3C[C@H]4C(=O)N[C@]5(C(=O)NS(=O)(=O)C6(CF)CC6)C[C@H]5/C=C\CC[C@@H](C)O[C@@H](C)[C@H](NC(=O)OC(C)(C)C(F)F)C(=O)N4C3)nccc12 [Compound 2022, 1,1-difluoro-2-methylpropan-2-yl ((2R,6S,7S,9R,13aS,14aR,16aS,Z)-2-((7-fluoro-5-methoxyisoquinolin-1-yl)oxy)-14a-(((1-(fluoromethyl)cyclopropyl)sulfonyl)carbamoyl)-7,9-dimethyl-5,16-dioxo-2,3,5,6,7,9,10,11,13a,14,14a,15,16,16a-tetradecahydro-1H-cyclopropa[i]pyrrolo[1,2-e][1,5,8]oxadiazacyclopentadecin-6-yl)carbamate]",1.01 to 5,1.01 to 5,–,–
CC[C@@H]1O[C@H](C)CC/C=C\[C@@H]2C[C@@]2(C(=O)NS(=O)(=O)C2(C)CC2)NC(=O)[C@@H]2C[C@@H](Oc3nccc4cc(OC)c(F)cc34)CN2C(=O)[C@H]1NC(=O)OC(C)(C)C(F)(F)F [Compound 1001],1.01 to 5,0.1 to 0.5,1.26,0.47
"COc1ccc2c(O[C@@H]3C[C@H]4C(=O)N[C@]5(C(=O)NS(=O)(=O)C6(CF)CC6)C[C@H]5/C=C\CC[C@@H](C)O[C@@H](C)[C@H](NC(=O)OC(C)(C)C(C)(F)F)C(=O)N4C3)nccc2c1 [Compound 2014, 3,3-difluoro-2-methylbutan-2-yl ((2R,6S,7S,9R,13aS,14aR,16aS,Z)-14a-(((1-(fluoromethyl)cyclopropyl)sulfonyl)carbamoyl)-2-((6-methoxyisoquinolin-1-yl)oxy)-7,9-dimethyl-5,16-dioxo-2,3,5,6,7,9,10,11,13a,14,14a,15,16,16a-tetradecahydro-1H-cyclopropa[i]pyrrolo[1,2-e][1,5,8]oxadiazacyclopentadecin-6-yl)carbamate]",1.01 to 5,0.51 to 1,2.38,0.66
